From patent US10426758B2, “Sibiriline derivatives for use for preventing and/or treating disorders associated with cellular necroptosis” (Institut National de la Sante et de la Recherche Medicale …, priority 2015, dated 2019)

Experiments:
[1] = test system: L929 cells; experiment: Anti-necroptotic effect, L929 cells, TNF + zVAD, FACS of propidium iodide-stained nuclei; assay type: cell-based
Description: (§1) L929 cells, L929AsFas cells, Jurkat FADD-deficient cells (Jurkat FADD^−/−), U937 cells are pretreated for 1 h with increased concentrations of Sib (0, 5, 10, 20 μM) and then treated respectively with TNF-α (10 ng/ml)+zVAD (20 μM), FasL (200 ng/ml)+zVAD (20 μM), TNF-α (10 ng/ml), TRAIL (200 ng/ml)+zVAD (30 μM) or TRAIL (200 ng/ml)+zVAD (30 μM)+CHX (1 μg/ml). % of cell death is determined after 24 h and calculated by a FACS analysis of Propidium Iodide-stained nuclei. In each case, the EC50 is determined as well as the % of rescue from cell death.

[2] = test system: Jurkat FADD-deficient cells (Jurkat FADD−/−); experiment: Anti-necroptotic effect, Jurkat FADD-deficient cells, TNF, FACS of propidium iodide-stained nuclei; assay type: cell-based, human
Description: as §1

[3] = test system: L929 cells; experiment: Clonogenic assay (CA); assay type: cell-based; conditions: 10 μM for 24 hours with TNF-α (10 ng/ml)/z-VAD (20 μM); 15 days of culture
Description: This effect of Sibiriline on necroptosis was verified using clonogenic assay (CA). CA is an in vitro cell survival assay based on the ability of a single cell to grow into a colony.
L929 cells are treated by TNF-α (10 ng/ml)/z-VAD (20 μM) w/or w/o 10 μM Sib for 24 hours. After treatment, cells are seeded out in appropriate dilutions (here 5,000 cells per well) to form colonies in 2 weeks. Colonies are fixed with ice cold methanol and stained with crystal violet.

[4] = biological target: T1, Human RIPK1 full length GST-tagged (Homo sapiens, UniProt Q13546); experiment: RIPK1 autophosphorylation assay; assay type: biochemical; conditions: radioactively labeled RIPK1, [γ-32P] ATP, 30 minutes at 30° C.
T1 construct: Human RIPK1 full length GST-tagged; made in house; host or cells: Sf9 insect cells (Bac-to-Bac baculovirus system)
T1 sequence (Q13546 1-671): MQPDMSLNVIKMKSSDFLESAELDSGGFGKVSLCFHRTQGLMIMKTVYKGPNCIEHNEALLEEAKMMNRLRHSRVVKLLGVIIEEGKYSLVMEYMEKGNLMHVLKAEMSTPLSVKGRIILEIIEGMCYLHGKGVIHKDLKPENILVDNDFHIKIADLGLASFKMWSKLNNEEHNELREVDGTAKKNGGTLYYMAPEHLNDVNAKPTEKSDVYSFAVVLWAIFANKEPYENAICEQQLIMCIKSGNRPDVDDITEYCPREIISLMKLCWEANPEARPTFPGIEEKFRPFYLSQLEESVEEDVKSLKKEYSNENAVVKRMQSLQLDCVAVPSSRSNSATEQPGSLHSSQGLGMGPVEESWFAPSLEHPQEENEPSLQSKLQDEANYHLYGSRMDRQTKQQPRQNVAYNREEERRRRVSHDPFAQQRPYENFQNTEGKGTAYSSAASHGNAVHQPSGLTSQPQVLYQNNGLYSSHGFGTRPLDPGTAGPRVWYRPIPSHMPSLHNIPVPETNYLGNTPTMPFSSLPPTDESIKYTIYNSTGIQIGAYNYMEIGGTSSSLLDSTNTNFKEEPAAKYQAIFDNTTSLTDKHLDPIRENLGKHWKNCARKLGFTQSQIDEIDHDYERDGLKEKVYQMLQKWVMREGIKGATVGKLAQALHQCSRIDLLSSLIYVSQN
Description: Human RIPK1 full length GST-tagged was baculovirally expressed in Sf9 cells according to manufacturer's instructions (Bac-to-Bac expression system, Invitrogen) and purified using gluthation-sepharose beads (GE Healthcare). The elution was made in 50 mM Tris-HCl, pH 8.0 buffer supplemented with 30 mM reduced gluthatione (Sigma). The protocol used to detect the enzymatic activity is adapted from Miao and Degterev (Methods Mol. Biol. 2009, 559, 79-93). Kinase reaction was initiated mixing 5 μl of eluted RIPK1, 5 μl of 3× kinase reaction buffer (5 mM MOPS pH 7.2, 2.5 mM β-glycerophosphate, 4 mM MgCl2, 2.5 mM MnCl2, 1 mM EGTA, 0.4 mM EDTA, 50 μg/ml BSA, 0.05 mM DTT), 2 μl H2O and 3 μl of the tested molecule. The mixture was kept on ice for 10 minutes. During the incubation, the ATP solution was prepared by mixing 5 μl of 3× kinase reaction buffer, 4 μl H2O, 6 μl cold ATP at 150 μM and 2 μCi of [γ-^32P] ATP. Add the ATP solution and the tested inhibitor to the kinase and incubate for 30 minutes at 30° C. To stop the enzymatic reaction, 5 μl of loading buffer were added and solution was heated for 3 minutes at 95° C. 25 μl of each reaction were loaded per well in pre-cast NuPage 12% Bis-Tris gel (Life Technology). Autophosphorylated RIPK1 band was visualized on radiographic film after 6 h exposition at −80° C.

inhibition of RIPK1 autophosphorylation [4]: dose-dependent inhibition
inhibition of RIPK1 autophosphorylation ([4]; listed as Sib): inhibit the RIPK1 autophosphorylation
SMILES: Oc1ccc(-c2cc3cccnc3[nH]2)cc1 [compound 2, 4-(1H-pyrrolo[2,3-b]pyridin-2-yl)phenol]
EC50 ([1]; Mus musculus, 1 h pretreatment, cell death after 24 h): 3 µM
% Rescue ([1]; rescue from cell death, 24 h): 80%
EC50 ([2]; Homo sapiens, 1 h pretreatment, cell death after 24 h): 1.2 µM
% Rescue ([2]; rescue from cell death, 24 h): 90%
cell colonies (cellular growth) after treatment [3]: can restore the cellular growth and protect cells from death
